Measurements reported in US7425548B2, “Materials and methods for immune system stimulation” (Variety Chidren's Hospital, priority 2004, dated 2008).
Where two headings read alike, the source gives them in different places.

Experiments:
[1] = system: I-κBα in RAW 264.7 macrophages; experiment: I-κBα degradation, immunoblot; assay type: cell-based, mouse; conditions: RR1 100 μg/ml, western blot
Experimental: The cells were treated with RR1 at intervals of 15, 30, and 60 minutes. Degradation of I-κBα levels in cytoplasmic lysates was determined by immunoblot analysis using antimouse I-κBα mAb. I-κBα degradation. The degradation of IκB-α is a prerequisite for the activation of NF-κB. To determine the effect of RR1 on cellular IκB-α levels and its degradation, immunoblot analysis was performed with cytosolic lysates from RR1-treated RAW 264.7 macrophages for different time periods (0, 15 minutes, 30 minutes, 1 hour). The lysates were separated by SDS-PAGE on 12% gels and transferred to nitrocellulose membranes using a TransBlot apparatus (BIO-RAD, Hercules, Calif.). The membranes were hybridized with IκB-α specific monoclonal antibodies (1:1000) by the Western blot hybridization protocol (Lebron, F. et al. J Biol Chem., 2003, 278:25001-25008) using antimouse IκB-α antibody (CELL SIGNALING TECHNOLOGY, Inc, Beverly, Mass.) using the color detection system (BIO-RAD, Hercules, Calif.).

[2] = system: HEK293 cells transfected with TLR2/6; experiment: TLR signaling, IL-8 ELISA; assay type: cell-based, human; conditions: HEK/TLR2/6, RR1 0-100 μg/ml, 24 hours
Experimental: HEK293/TLR2/TLR6 cells (1×10^6) were treated with RR1 (0, 10, 50 and 100 μg/ml) at 37° C. for 24 hours and secreted IL-8 in the medium was analyzed by ELISA protocol.
TLR signaling. To determine the involvement of TLR signaling, parental HEK293 as well as HEK293 cells transfected with human TLR2, TLR6, TLR2/6 or TLR4/CD14/MD2 genes (cloned into pDUO plasmid), were used. These cells (0.5×10^6/ml) were incubated with 0-100 μg/ml of RR1 for 24 hours. Since these cells produce very low level of TNF-α and detectable levels of IL-8 upon activation, IL-8 secreted into the medium was analyzed using ELISA procedure. Incidentally, the IL-8 synthesis is also under the control of the transcription factor NF-κB.

normal lymphocytes = experiment: Quantification of cytokine and chemokine synthesis by ELISA; assay type: cell-based, human
Experimental: FIGS. 8A-8H show synthesis of cytokines and chemokine in RR1-induced normal lymphocytes. Normal lymphocytes from healthy volunteers were treated with RR1 (0-100 μg) at 37° C. for 24 hours in a CO2 incubator in RPMI medium. The supernatant medium was analyzed for the production of cytokines and chemokine in an ELISA procedure using reagent kits (BD Biosciences).
Immunostimulating Properties. To measure the immune stimulatory property of RR1, the activation of the different subsets of lymphocytes, syntheses of cytokines such as interleukin (IL)-1β, IL-2, IL-4, IL-6, IL-10, IL-12 p70 and p40, IL-18, interferon (IFN)-α and γ, Tumor Necrosis factor (TNF)-α and β, monocyte chemo-attractant protein (MCP)-1, synthesis of nitric oxide (NO), and the extent of oxidative stress elicited in human lymphocytes was analyzed. Normal lymphocytes were isolated by the histopaque density gradient method from fresh blood drawn from healthy volunteers and utilized for various assays. Human leukemic (CEM) and multidrug resistant (CEM/VLB) cell lines were grown in RPMI medium supplemented with 10% fetal bovine serum and antibiotics in 5% CO2 incubator at 37° C.
Quantification of Cytokine and Chemokine Synthesis. Cytokines such as IL-1β, IL-2, IL-4, IL-6, IL-10, IL-12p40, IL-12p70, IL-18, IFN-γ and TNF-α, β and chemokine, MCP-1 were quantified by ELISA procedure using kits from BD Biosciences, according to manufacturer's protocols. IFN-α was assayed using the ELISA kit of RESEARCH DIAGNOSTICS Inc. (New Jersey). In short, 50 μl of ELISA diluent is pipetted into antibody coated wells of 96 well plates followed by 100 μl of each standard and test samples, shaken for 5 seconds to mix the contents in the wells, covered with plate sealer and incubated for 2 hours at room temperature. After incubation, the contents of the wells were aspirated and washed five times with wash solution. After complete removal of the wash solution in the final wash, 100 μl of detection solution was added, covered with plate sealer, and incubated for 1 hour. The wells were washed 7 times with wash solution and added 100 μl of one step substrate reagent and incubated for 30 minutes in dark. The color development was stopped by adding 50 μl of stop solution and the absorbance were recorded at 450 nm with a reference wave length of 570 nm in a BIO-RAD Benchmark plate reader.

Water solubility = assay type: physicochemical
Experimental: Isolation and characterization of RR1. […] The final RR1 compound, shown in FIG. 3, was isolated in about 0.1% yield of the total dry material used for extraction as a puffy solid that dissolved in water. […] Therefore, detailed polysaccharide analyses such as the glycosyl composition, linkage, molecular weight and conformation of the glucose units at the anomeric center were performed at the Complex Carbohydrate Research Center, University of Georgia, Athens. […] To perform glycosyl linkage analysis, the sample was permethylated three times by the method of Cikanu and Kereck (Ciucanu, I. and F. Kereck Carbohydr. Res., 1984, 131:209-217), hydrolyzed with 2 M trifluroacetic acid, reduced with NaBD4 and acetylated with acetic anhydride/pyridine and the resulted partially methylated alditol acetates (PMAA) were analyzed by GC/MS. […] The conformations at the anomeric center of the glucopyranosyl units were obtained based on the 500 MHz protonNMR spectra recorded in D2O and by comparison with the anomeric proton signals of standard samples. The molecular mass was obtained from the size exclusion chromatography using SUPELCO silica column (1.0×30 cm), eluting with 50 mM ammonium formate buffer at a rate of […]. and detected by the refractive index. […]

[3] = RR1 0-100 μg, 24 hours (FIGS. 8A-8H)

For (1,4)-α-D-glucan [RR1], the “time to complete removal of I-κBα expression” value [1] was 60 min, the IL-8 production [2] was “copious induction of IL-8” and the “synthesis of IFN-γ” value (normal lymphocytes) was 90.16 pg/mL. The “synthesis of IL-6” value (normal lymphocytes) was 21833 pg/mL, the “synthesis of IL-12 p40” value (normal lymphocytes) was 918.23 pg/mL and the “synthesis of IL-12 p70” value (normal lymphocytes) was 50.19 pg/mL. For the same substance, the “synthesis of MCP-1” value (normal lymphocytes) was 2307 pg/mL, the “production of IFN-α” value (normal lymphocytes; 24 hours) was “did not induce” and the “production of IL-2” value (normal lymphocytes; 24 hours) was “did not induce”. The “production of IL-4” value (normal lymphocytes; 24 hours) was “did not induce”, the “production of IL-10” value (normal lymphocytes; 24 hours) was “did not induce” and the “production of TNF-β” value (normal lymphocytes; 24 hours) was “did not induce”. The “RR1 concentration at which the maximum IL-12 (p40) was recorded” value (normal lymphocytes; FIG. 8C) was 10 µg/mL, the “synthesis of IFN-γ” value (normal lymphocytes; [3]) was 90.16 pg and the “synthesis of IL-1β” value (normal lymphocytes; [3]) was 1080 pg. For the same substance, the “synthesis of IL-6” value (normal lymphocytes; [3]) was 21833 pg, the “synthesis of IL-12 p40” value (normal lymphocytes; [3]) was 918.23 pg and the “synthesis of IL-12 p70” value (normal lymphocytes; [3]) was 50.19 pg. For the same substance, the “synthesis of IL-18” value (normal lymphocytes; [3]) was 27.47 pg, the “synthesis of MCP-1” value (normal lymphocytes; [3]) was 2307 pg and the “synthesis of TNF-α” value (normal lymphocytes; [3]) was 2225 pg. For the same substance, the “synthesis of IL-18” value (normal lymphocytes; at 100 pg/ml concentration) was 27.47 pg/mL, the “synthesis of TNF-α” value (normal lymphocytes; at 100 pg/ml concentration) was 2225 pg/mL and the solubility in water (Water solubility) was “soluble in water”.
